Consider 1 compound from publication PMC5908784, “Extracellular loops 2 and 3 of the calcitonin receptor selectively modify agonist binding and efficacy” (Biochemical Pharmacology, 2018).

What all share (type): cell-based
One assay deals with T1, hCTR M367A (Homo sapiens, UniProt P30988, M367A).
T1 construct: c-Myc (N); expressed in transfected cells
T1 sequence (P30988 25-474 M367A): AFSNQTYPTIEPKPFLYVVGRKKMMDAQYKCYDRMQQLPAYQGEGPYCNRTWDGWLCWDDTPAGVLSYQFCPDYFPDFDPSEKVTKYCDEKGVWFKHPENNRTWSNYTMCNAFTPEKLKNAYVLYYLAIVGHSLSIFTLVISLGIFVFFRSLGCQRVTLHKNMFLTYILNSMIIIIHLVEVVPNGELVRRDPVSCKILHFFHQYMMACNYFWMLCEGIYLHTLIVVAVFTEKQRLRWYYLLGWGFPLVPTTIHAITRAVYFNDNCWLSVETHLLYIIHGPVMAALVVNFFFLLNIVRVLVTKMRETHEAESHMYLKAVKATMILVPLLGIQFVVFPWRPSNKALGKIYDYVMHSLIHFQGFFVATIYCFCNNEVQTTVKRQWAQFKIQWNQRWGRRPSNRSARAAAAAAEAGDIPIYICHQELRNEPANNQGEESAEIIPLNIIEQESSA
As to the kind of experiment: ERK1/2 phosphorylation. Conditions: pERK maximal response, CV1-FlpIn cells, mean ± S.E.M. A digest of the protocol: (§1)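 First, cells (2.5 × 10^4 per well) were plated and left overnight. Agonist concentration-response data were then scaled to the peak signal given by 10% FBS at 6 min. Finally, a 3-parameter logistic equation yielded EC50 and Emax.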

Another assay has as its target T2, hCTR L368A (Homo sapiens, UniProt P30988, L368A).
T2 construct: c-Myc (N); expressed in transfected cells
T2 sequence (P30988 25-474 L368A): T1 sequence (P30988 25-474 M367A) with A343M, L344A
The experiment in a line: ERK1/2 phosphorylation. The following applies: pERK maximal response, CV1-FlpIn cells, mean ± S.E.M. A digest of the protocol:
as §1

In a further assay the target is T3, hCTR I279A (Homo sapiens, UniProt P30988, I279A).
T3 construct: expressed in transfected cells
T3 sequence (P30988 25-474 I279A): T1 sequence (P30988 25-474 M367A) with I255A, A343M
As to the kind of experiment: IP1 accumulation. The following applies: IP1 maximal response, mean ± S.E.M., SEM. How it is done: (§2) Cells (2.5 × 10^4 cells/well) were plated into 96 well trays and cultured overnight. Cells were stimulated with increasing concentration of ligands for 60 min in the presence of LiCl. Samples were lysed and endogenous IP1 was measured using an IP-One HTRF® assay kit (CisBio) as specified by the manufacturer. Data were normalized to the maximal response elicited by 100 μM of ATP.
(§3) Data were corrected for radioligand occupancy using the Cheng-Prusoff equation in Prism; as such data are reported as pKi. Emax and EC50 were estimated from concentration-response curves using with a 3-parameter logistic equation in Prism (v7). These values are a composite of functional affinity, efficacy and stimulus response coupling. […] Significance was accepted at P < 0.05.

For a further assay, the target named is T4, hCTR N288A (Homo sapiens, UniProt P30988, N288A).
T4 construct: expressed in transfected cells
T4 sequence (P30988 25-474 N288A): T1 sequence (P30988 25-474 M367A) with N264A, A343M
As to the kind of experiment: IP1 accumulation. Conditions: IP1 maximal response, mean ± S.E.M., SEM. As for the experimental part: as §2, §3

A further assay has as its target T5, hCTR T295A (Homo sapiens, UniProt P30988, T295A).
T5 construct: c-Myc (N); expressed in transfected cells
T5 sequence (P30988 25-474 T295A): T1 sequence (P30988 25-474 M367A) with T271A, A343M
The experiment in a line: IP1 accumulation. The following applies: IP1 maximal response, mean ± S.E.M., SEM. As for the experimental part:
as §2, §3

Numbering of substitutions follows the chain as printed.

As for `CC[C@H](C)[C@H](NC(=O)[C@H](C)NC(=O)[C@@H](NC(=O)[C@H](CCC(N)=O)NC(=O)[C@@H]1CCCN1C(=O)[C@H](Cc1ccccc1)NC(=O)[C@@H](NC(=O)[C@H](Cc1c[nH]cn1)NC(=O)[C@H](Cc1ccccc1)NC(=O)[C@H](CCCCN)NC(=O)[C@H](CC(N)=O)NC(=O)[C@H](Cc1ccccc1)NC(=O)[C@H](CC(=O)O)NC(=O)[C@H](CCC(N)=O)NC(=O)[C@@H](NC(=O)[C@H](Cc1ccc(O)cc1)NC(=O)[C@@H](NC(=O)CNC(=O)[C@H](CC(C)C)NC(=O)[C@H](CCSC)NC(=O)[C@@H]1CSSC[C@H](N)C(=O)NCC(=O)N[C@@H](CC(N)=O)C(=O)N[C@@H](CC(C)C)C(=O)N[C@@H](CO)C(=O)N[C@@H]([C@@H](C)O)C(=O)N1)[C@@H](C)O)[C@@H](C)O)[C@@H](C)O)[C@@H](C)O)C(=O)NCC(=O)N[C@H](C(=O)NCC(=O)N[C@@H](C)C(=O)N1CCC[C@H]1C(N)=O)C(C)C` [hCT], the Emax (in general, the maximal effect, on the per cent scale that the assay sets) at hCTR M367A is 127 ± 7%; at hCTR L368A it was 126 ± 7%; at hCTR I279A, 79 ± 7%; on hCTR N288A, 91 ± 8%; at hCTR T295A, 43 ± 4%.
